Data as given in patent publication US7964734B2, “Raloxifene acid addition salts and/or solvates thereof, improved method for purification of said raloxifene acid addition salts and/or solvates thereof and pharmaceutical compositions comprising these” (A/S Gea Farmaceutisk Fabrik, priority 2002, dated 2011).
Counter-ions that a name gives are not always drawn. Like-named read-outs stand apart in the source and are kept apart here.

What was measured:
[1] = Intrinsic dissolution rate, Rotation Disc Method (USP 1087); assay type: physicochemical; settings: 37° C., 100 rpm, average of two measurements
Procedure: The raloxifene hydrochloride salt used in these experiments was purchased from Otto Bradt GmbH (batch MA/RF/12003) while the rest of the raloxifene acid additions salts were prepared according to Example 1-6.
The experiments were carried out following the procedure of Rotation Disc Method (USP 1087) using Vankel VK 7000 Intrinsic dissolution apparatus (Vankel Technology group, W. Vankelion) equipped with Vankel 12-4120 intrinsic disc having a surface area of 0.5 cm^2, Vankel 12-4130 surface plate, Vankel 12-4140 punch, and Vankel shaft and holder (surface area: 0.5 cm^2) and operating at a rotation rate of 100 rpm.
The buffer solution is handled in a 750 ml measuring bottle, degassed and transferred into a dissolution vessel. Approximately 100 mg compound is weighed out and transferred into an intrinsic disc. Said disc is then assembled, and to said disc a disc is applied in the IR-press at a pressure of 5 kN for 1 minute. The disc is started and samples of 10 ml are collected by use of “pressure vials” after 1, 10, 20, 30, 45, and 60 minutes. The change of volume is corrected using the equation: Q=Vs×(sumCn−1)+Cn×Vt wherein Q designates the volume at the time t, C designates the concentration of the sample n, Vt designates the volume of the liquid collected at the time t, and Vs designates the volume of the sample collected. The sample is measured against a standard using HPLC. In these measurements a 5 microns 3.9×150 mm column filled with symmetrical material is employed and as eluant a 20 mM phosphate buffer KH2PO4, pH 6.8 mixed with acetonitrile and tetrahydrofuran in the ratio 55:35:10 is used.
The standard is prepared by use of following procedure: 20 mg of salt is dissolved initially in 100 ml of MeOH and then 1 ml of this solution is transferred to a 50 ml flask with water and then 2 ml to a 20 ml flask of buffer in question.
pH 1: a 0.1 M HCl is used.
0.025 M Phosphate buffer solution pH 2.0: 3.40 g of potassium dihydrogen phosphate is dissolved in 900 ml of water. Then pH is adjusted to 2.0 with phosphoric acid and diluted to 1000.0 ml with water. Exactly 5.85 g of NaCl is added to 1 L of buffer.
0.025 M Phosphate buffer solution pH 3.0: 3.40 g of potassium dihydrogen phosphate is dissolved in 900 ml of water. Then pH is adjusted to 3.0 with phosphoric acid and diluted to 1000.0 ml with water. Exactly 5.85 g of NaCl is added to 1 L of buffer.
0.022 M Phosphate buffer solution pH 4.0: 3.0 g of potassium dihydrogen phosphate is dissolved in 800 ml of water. Then pH is adjusted with 1 M potassium hydroxide and phosphoric acid and diluted to 1000.0 ml with water. Exactly 5.85 g of NaCl is added to 1 L of buffer. 0.02 M Phosphate buffer solution pH 5.0: 2.72 g of potassium dihydrogen phosphate is dissolved in 800 ml of water. Then pH is adjusted with 1 M potassium hydroxide and diluted to 1000.0 ml with water. Exactly 5.85 g of NaCl is added to 1 L of buffer.

[2] = cited from earlier work
[3] = Dissolution test in dilute acid, evaluated visually; assay type: physicochemical
Procedure: 60 mg raloxifene HCl was transferred to a dissolution vessel containing one liter 0.1 M HCl. The mixture was vigorously mixed and left at room temperature over night. Subsequently the dissolution was evaluated visually.
A similar dissolution test was performed using 60 mg raloxifene hydrochloride in 0.1 M phosphoric acid.

[4] = Solubility in aqueous solvents/media (general statement); assay type: physicochemical; settings: versus aqueous media
[5] = Hydrochloride, pH 1 (0.1 M HCl)
[6] = Phosphate, pH 2, chloride 0.1 M
[7] = Phosphate, pH 3, chloride 0.1 M
[8] = Phosphate, pH 4, chloride 0.1 M
[9] = Phosphate, pH 5, chloride 0.1 M

Compound	intrinsic dissolution rate (IDR) [1, 5] [μmol/min * cm^2]	intrinsic dissolution rate (IDR) [1, 6] [μmol/min * cm^2]	intrinsic dissolution rate (IDR) [1, 7] [μmol/min * cm^2]	intrinsic dissolution rate (IDR) [1, 8] [μmol/min * cm^2]	intrinsic dissolution rate (IDR) [1, 9] [μmol/min * cm^2]	solubility in aqueous solvents ([2]; hydrochloride)	dissolution evaluated visually ([3]; 60 mg in 0.1 M phosphoric acid, similar test)	dissolution evaluated visually ([3]; 60 mg in one liter 0.1 M HCl, vigorously mixed, room temperature over night)	solubility in aqueous media comprising hydrochloric acid [4]	solubility in aqueous solvents [2]
CC(O)C(=O)O.O=C(c1ccc(OCCN2CCCCC2)cc1)c1c(-c2ccc(O)cc2)sc2cc(O)ccc12 [DL-lactate hemihydrate, [6-hydroxy-2-(4-hydroxyphenyl)benzo[b]thien-3-yl][4-[2-(1-piperidinyl)ethoxy]phenyl-, DL-lactate]	0.0056	0.0119	0.0062	0.0212	0.0215	–	–	–	–	–
[6-hydroxy-2-(4-hydroxyphenyl)benzo[b]thien-3-yl][4-[2-(1-piperidinyl)ethoxy]phenyl-, succinate	0.0550	0.0228	0.0271	0.0127	0.0119	–	–	–	–	–
O=C(c1ccc(OCCN2CCCCC2)cc1)c1c(-c2ccc(O)cc2)sc2cc(O)ccc12 [Hydrochloride, raloxifene hydrochloride, reference compound]	0.0022	0.0026	0.0022	0.0022	0.0044	fairly soluble	all raloxifene hydrochloride seemed to be dissolved	Very little of the initial added amount of raloxifene hydrochloride was dissolved	decreases significant	–
O=C(O)CC(=O)O.O=C(c1ccc(OCCN2CCCCC2)cc1)c1c(-c2ccc(O)cc2)sc2cc(O)ccc12 [Malonate]	0.0229	0.0173	0.0148	0.0136	0.0112	–	–	–	–	–
C[C@H](O)C(=O)O.O=C(c1ccc(OCCN2CCCCC2)cc1)c1c(-c2ccc(O)cc2)sc2cc(O)ccc12 [L-Lactate ¼-hydrate]	0.0035	0.0028	0.0067	0.0324	0.0247	–	–	–	–	–
C[C@H](O)C(=O)O.O=C(c1ccc(OCCN2CCCCC2)cc1)c1c(-c2ccc(O)cc2)sc2cc(O)ccc12 [L-lactate hemihydrate]	0.0475	0.0453	0.0403	0.0190	0.0091	–	–	–	–	–
O=C(c1ccc(OCCN2CCCCC2)cc1)c1c(-c2ccc(O)cc2)sc2cc(O)ccc12 [raloxifene as free base, 6-hydroxy-2-(4-hydrophenyl)-3-[4-(2-piperidinoethoxy)-benzoyl]benzo-[b]-thiophene]	–	–	–	–	–	–	–	–	–	only sparingly soluble
